Assay results as given in patent US20120115895A1, “TRICYCLIC INDOLE-DERIVED SPIRO DERIVATIVES AS CRTH2 MODULATORS” (Merck Serono S.A., priority 2009, published 2012).

Experiments:
[1] = In vivo pharmacokinetic evaluation in mouse; set-up: species or system C57BL/6 female mice; conditions: for Cmax: female, C57BL/6, mouse, plasma, po, 5 mg/Kg; for Cmax / Fz in mice: mice; for Fz in mice: oral bioavailability, 5 mg/kg po, 1 mg/kg i.v.
Description: (§1) In order to study the pharmacokinetic (PK) profile of test compounds in vivo, Sprague Dawley male rats or C57BL/6 female mice were dosed intravenously or after oral gavage. For both species, test compounds were dosed in solution at 1 mg/kg for i.v. route (10% ethanol, 10% N,N-dimethylacetamide, 30% propylene glycol, 50% water, v/v) and in suspension at 5 mg/kg (0.5% carboxymethylcellulose suspension, containing 0.25% Tween 20 in water) for oral gavage. PK profile in rat was obtained from 3 animals per dosing route and mouse PK profile was determined from 3 animals for each time points. The volume of administration was 2 mL/kg for i.v. dosing in both species and either 5 mL/kg (rat) or 10 mL/kg (mouse) for oral gavage. Blood samples (100 µL/time point) were collected at 0.083 (5 min), 0.25, 0.5, 1, 4, 7 and 24 hours post-dose for i.v. dosing, and at 0.5, 1, 4, 7 and 24 h for oral dosing, into heparin-Li+ containing tubes. For rats, all blood samples were collected trough a catheter in the carotid artery (placed in the artery the day before the experiment), under light isoflurane anesthesia, and stored on ice until centrifugation and plasma isolation. For mouse, blood samples were collected from intracardiac puncture at sacrifice at each time point and processed as described above for the rat. Plasma samples were stored frozen until analysis (−20° C. to −70° C.). For bioanalysis, samples were processed by protein precipitation (acetonitrile, formic acid 0.1%, addition of 3 volumes) after addition of one internal standard and analysed using a sensitive and selective LC/MS/MS method. An aliquot of the resulting supernatant was subject to LC/MS/MS analysis using a reverse phase column (Waters Xterra, C8, (3.5 μm particle size, 2.1×50 mm) and a short gradient (1 min) from (Solvent A) 85% water, 15% acetonitrile and 0.1% formic acid to (Solvent B) 90% acetonitrile, 10% water and 0.1% formic acid followed by isocratic conditions of Solvent B for 3.5 min at 0.4 mL/min. Column effluent was monitored using a Sciex API 4000 triple quadrupole mass spectrometer with a Turbo V electrospray ion source. Unknown concentrations of test compounds were determined using a calibration curve ranging from 1 to 3000 ng/mL.

[2] = In vivo pharmacokinetic evaluation in rat; set-up: species or system Sprague Dawley male rats; conditions: for Cmax: male, Sprague Dawley, plasma, po, 5 mg/Kg; for Cmax / Fz in rats: rats; for Fz in rats: oral bioavailability, 5 mg/kg po, 1 mg/kg i.v.
Description: as §1

[3] = molecular target: T1, CRTH2 (Homo sapiens, UniProt Q9Y5Y4); assay: Radioligand binding Scintillation Proximity Assay ([3H]PGD2, hCRTH2-CHO cell membranes); set-up: host or cells: CHO cells
T1 sequence (Q9Y5Y4 1-395): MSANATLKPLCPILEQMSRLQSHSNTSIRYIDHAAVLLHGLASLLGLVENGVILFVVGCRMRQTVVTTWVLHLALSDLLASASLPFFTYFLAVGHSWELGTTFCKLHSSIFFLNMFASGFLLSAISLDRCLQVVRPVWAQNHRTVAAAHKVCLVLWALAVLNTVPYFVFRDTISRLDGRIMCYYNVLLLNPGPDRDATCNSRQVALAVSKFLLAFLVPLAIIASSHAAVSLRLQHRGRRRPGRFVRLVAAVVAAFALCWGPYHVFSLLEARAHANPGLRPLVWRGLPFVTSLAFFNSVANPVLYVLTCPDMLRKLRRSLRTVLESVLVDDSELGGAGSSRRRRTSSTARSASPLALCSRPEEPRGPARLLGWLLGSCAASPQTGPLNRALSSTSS
Description: Adherent CHO cells expressing hCRTH2 (Euroscreen, Belgium) were cultured in 225 cm2 cell culture flasks (Corning, USA) in 30 ml of medium. After two rinses of phosphate buffered saline (PBS), cells were harvested in 10 ml of PBS containing 1 mM EDTA, centrifuged at 500×g for 5 min at 4° C. and frozen at −80° C. The pellet was re-suspended in 50 mM Tris-HCl, pH 7.4, 2 mM EDTA, 250 mM Sucrose, containing protease inhibitor cocktail tablets, (Complete EDTA-free, Roche, Germany) and incubated 30 min at 4° C. Cells were disrupted by nitrogen cavitation (Parr Instruments, USA) at 4° C. (800 p.s.i. for 30 min), and centrifuged at 500×g for 10 min at 4° C. Pellet containing nuclei and cellular debris was discarded and supernatant was centrifuged 60 min at 4° C. at 45000×g. Membrane pellet was re-suspended in storage buffer (10 mM HEPES/KOH pH 7.4, 1 mM EDTA, 250 mM sucrose, protease inhibitor cocktail tablets) using Dounce homogenization and frozen in liquid nitrogen, and stored at −80° C.
The inhibitory activity can be investigated by a radioligand binding Scintillation Proximity Assay (SPA) (Sawyer et al., Br. J. Pharmocol 2002, 137, 1163-72). The SPA radioligand binding assay was performed at room temperature in binding buffer (10 mM HEPES/KOH pH 7.4, 10 mM MnC12, with protease inhibitor cocktail tablets), containing 1.5 nM [3H]PGD2 (Perkin Elmer), 10-50 μg/ml of hCRTH2—CHO cell membrane protein and 2 mg/ml of Wheat-germ agglutinin Scintillation Proximity Assay beads (RPNQ0001, GE-Healthcare) in a final volume of 100 μl in 96 well plates (Corning, USA). Non-specific binding was determined in the presence of 10 μM PGD2 (Cayman, USA). Competing Compounds of Formula (I) were diluted in dimethylsulphoxide so that the total volume of dimethylsulfoxide was kept constant at 1% dimethylsulphoxide (Me2SO). Serial dilutions of 100 μM to 100 pM were prepared and 10 μl each of the compounds of Formula (I) stock solutions were added to the binding assay reagents and incubated for 90 min with agitation at room temperature. Binding activity was determined by using a 1450 Micro-beta scintillation counter (Wallac, UK).

[4] = molecular target: T1, CRTH2; assay: PGD2-induced eosinophil cell shape assay in human whole blood; format: cell-based; set-up: endogenous in cells; host or cells: eosinophils in human whole blood from healthy volunteers; conditions: 10 nM PGD2
Description: The test compounds were diluted in dimethylsulphoxide so that the total volume of dimethylsulfoxide was kept constant at 2% dimethylsulphoxide (Me2SO). Serial dilutions of 200 μM to 0.09 μM were prepared. Samples of 90 μl of human blood from healthy volunteers (Centre de Transfusion Sanguine de Genève) were pre-incubated in polypropylene Falcon tubes (BD 352063) for 20 minutes in a water bath at 37° C. with 10 μl of diluted compounds. For CRTH2 activation, 100 μl PGD2 (Cayman 12010) at 20 nM was added (10 nM final) to each tube and cells were maintained at 37° C. For negative control cells were treated with PBS. After 10 minutes, cell activation was stopped with 120 μl Formaldehyde 10% (4% final, Fluka 41650) and cells were rested for 10 minutes at room temperature. Fixed cells were transferred into polypropylene tubes and then treated for 1 hour in a water bath at 37° C. with 2 ml of Triton—Surfact-Amps X-100 (Pierce 28314) at 0.166% (0.13% Triton final). After several washes with PBS (red cells lysed progressively during washes, two washes are necessary), cells were analyzed by flow cytometry on a FACSCalibur.

[5] = system: OVA-induced eosinophil recruitment in lung; assay: OVA-induced lung eosinophilia in mice; format: in vivo, BALB/c mice; conditions: oral route, dose of 30 mg/Kg
Description: BALB/c mice (6-8 weeks old) were immunized with ovalbumin (10 μg i.p) on day 0 and 7. In order to elicit a local inflammatory response in the lung, mice were challenged between day's 15-17 with a nebulised solution of ovalbumin (10 μg/ml; De Vilibiss Ultraneb 2000, once daily for 30 min during the 3 days). On each separate day between 15 and 17 each animal received via oral gavage the test compound, at t−1 h and t+7 h with respect to OVA exposure at t=0 h. Eight hours after the final OVA challenge, bronchoalveolar lavage (BAL) was then carried out. Total cell numbers in the BAL fluid samples were measured using a haemocytometer. Cytospin smears of the BAL fluid samples were prepared by centrifugation at 1200 rpm for 2 min at room temperature and stained using a DiffQuik stain system (Dade Behring) for differential cell counts.

[6] = comparison table with (+)-Enantiomer, read-out: Binding IC50
[7] = 1.5 nM [3H]PGD2, hCRTH2-CHO membranes, SPA, read-out: IC50 binding

SMILES | Cmax [1] [µg/mL] | Fz in mice [1] [%] | Cmax ([2]; rat) [µg/mL] | Fz in rats [2] [%] | IC50 [3, 6] [µM] | activity on DP2 ([3]; first eluting enantiomer compared with second eluting enantiomer) | IC50 [4] [µM] | oral bioavailability in mouse ([1]; mouse, in words) | oral bioavailability in rat ([2]; rat, in words) | inhibition of OVA-induced eosinophil recruitment in lung [5] [%] | IC50 [3, 7] [µM]
O=C(O)CN1C(=O)C2(NC(=O)N(Cc3cc(Cl)ccc3F)C2=O)c2cc(Cl)ccc21 (single isomer, unassigned; (+)) [(+)-Enantiomer, (+)-[5′-Chloro-1-(5-chloro-2-fluorobenzyl)-2,2′,5-trioxospiro[imidazolidine-4,3′-indol]-1′(2′H)-yl]acetic acid, reference compound] | 0.113 | 6 | 0.151 | 5.3 | 0.021 | better activity | 0.05 | – | – | – | –
CN1C(=O)N(Cc2cc(Cl)ccc2F)C(=O)C12C(=O)N(CC(=O)O)c1ccc(Cl)cc12 (single isomer, unassigned; (+)) [Example 2, (+)-[5′-chloro-1-(5-chloro-2-fluorobenzyl)-3-methyl-2,2′,5-trioxospiro[imidazolidine-4,3′-indol]-1′(2′H)-yl]acetic acid] | 0.691 | 39 | 0.489 | 37 | 0.068 | – | 0.15 | significant improvement | significant improvement | 79 | 0.045
CN1C(=O)N(CCc2cccc(Cl)c2)C(=O)C12C(=O)N(CC(=O)O)c1ccc(Cl)cc12 (stereo not drawn) [Example 15, [15′-chloro-1-[2-(3-chlorophenyl)ethyl]-3-methyl-2,2′,5-trioxospiro[imidazolidine-4,3′-indol]-1′(2′H)-yl]acetic acid] | – | – | – | – | – | – | – | – | – | – | 0.551
